Assay results: patent publication US20250214969A1, “PROTEIN DEGRADERS AND USES THEREOF” (Kymera Therapeutics, Inc., priority 2022, published 2025)

Experiments:
[1] = target: T1, truncated His-MBP-Tev-KLHDC2 (residues 1-363) (Homo sapiens, UniProt Q9Y2U9); assay: KLHDC2 HTRF binding assay; conditions: 1 nM KLHDC2 (residues 1-363), fluorescein-labeled diglycine peptide probe
T1 construct: truncated His -MBP-Tev-KLHDC2 (residues 1-363) purified from E. coli; made in house; host or cells: E. coli
T1 sequence (Q9Y2U9 1-363): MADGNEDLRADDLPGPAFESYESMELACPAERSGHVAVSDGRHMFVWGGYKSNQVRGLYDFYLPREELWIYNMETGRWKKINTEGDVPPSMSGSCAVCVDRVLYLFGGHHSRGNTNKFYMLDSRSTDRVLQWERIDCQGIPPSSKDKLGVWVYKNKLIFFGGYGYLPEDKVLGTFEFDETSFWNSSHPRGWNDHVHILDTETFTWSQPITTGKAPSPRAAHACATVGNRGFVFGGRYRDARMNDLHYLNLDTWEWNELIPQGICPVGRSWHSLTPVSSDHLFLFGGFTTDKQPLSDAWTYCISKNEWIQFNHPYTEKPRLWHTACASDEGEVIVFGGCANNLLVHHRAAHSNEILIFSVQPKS
Procedure: HTRF binding assays were performed using 1 nM truncated His -MBP-Tev-KLHDC2 (residues 1-363) purified from E. coli, 0.2 nM terbium-anti-His antibody (CisBio), 1 nM fluorescein-labeled diglycine peptide probe, and test compounds in assay buffer consisting of 50 mM HEPES-Na pH 7.5, 100 mM NaCl, 2 mM DTT, 0.005% Tween-20 with a final volume of 20 uL. Compound stocks were dissolved at 10 mM in 100% DMSO and 11 point titration with 3 fold serial dilution was performed in white, opaque 384 well microplates. Reaction plates were incubated at room temperature for 30 minutes. Plates were centrifuged at low rpm for 5 mins, and the ratio of fluorescence intensities were measured at emission wavelengths for fluorescein acceptor (520 nm) and terbium donor (495 nm) on Envision Plate reader. % Inhibition was calculated from the 520/495 ratio generated by the no protein controls for 100% inhibition and DMSO only reactions for 0l % inhibition.

[2] = target: T1, truncated His-MBP-Tev-KLHDC2 (residues 1-363); assay: KLHDC2 FP competition binding assay; conditions: 15 nM KLHDC2 (residues 1-363), 10 nM fluorescein-labeled diglycine peptide probe, read-out: KLHDC2 binding Human FP: average external IC50

Row | Compound | IC50 [1] [µM] | IC50 [2] [µM]
1 | C[C@@H](C(=O)O)n1cc(NC(=O)c2cccc(-c3cccnc3)c2)ccc1=O [I-71] | > 5 | > 5
2 | O=C(Nc1ccc(=O)n(Cc2nn[nH]n2)c1)c1cccc(-c2cccnc2)c1 [I-79] | > 5 | > 5
3 | C[C@]1(C(=O)Nc2ccc(=O)n(CC(=O)O)c2)CCCN(c2cccnc2)C1 [I-75] | 0.5 to 5 | 0.5 to 5
4 | O=C(O)Cn1cc(-c2cccc(O)c2)ccc1=O [I-368] | > 5 | > 5
5 | O=C(O)Cn1cc(NC(=O)c2ccc(-c3ccccc3)c(F)c2)ccc1=O [I-311] | 0.5 to 5 | > 5
6 | CN(CC(C)(C)C(=O)Nc1ccc(=O)n(CC(=O)O)c1)c1cccnc1 [I-36] | > 5 | > 5
7 | CS(=O)(=O)c1cccc(-c2ccc(=O)n(CC(=O)O)c2)c1 [I-385] | > 5 | > 5
8 | CS(=O)(=O)c1ccc(-c2cccc(C(=O)Nc3ccc(=O)n(CC(=O)O)c3)c2)cc1 [I-192] | > 5 | > 5
9 | O=C(O)Cn1cc(NC(=O)c2cccc(-c3cccs3)c2)ccc1=O [I-172, 2-(2-oxo-5-(3-(thiophen-2-yl)benzamido)pyridin-1 (2H)-yl) acetic acid] | > 5 | > 5
10 | O=C(O)Cn1cc(NS(=O)(=O)c2ccccc2)ccc1=O [I-317] | > 5 | > 5
11 | COc1cc(-c2cncs2)ccc1C(=O)Nc1ccc(=O)n(CC(=O)O)c1 [I-154] | 0.5 to 5 | > 5
12 | COc1ccccc1OCC(=O)Nc1ccc(=O)n(CC(=O)O)c1 [I-273] | > 5 | > 5
13 | O=C(Nc1ccc(=O)n([C@@H](F)C(=O)O)c1)c1cccc(-c2cccnc2)c1 [I-51] | 0.5 to 5 | > 5
14 | COc1cc(-c2cccs2)ccc1C(=O)Nc1ccc(=O)n(CC(=O)O)c1 [I-153] | 0.5 to 5 | 0.5 to 5
15 | O=C(O)Cn1cc(NC(=O)C2CCCc3cc(O)ccc32)ccc1=O (stereo not drawn) [I-245] | > 5 | > 5
16 | CCCc1ccc(C)c(-c2ccc(=O)n(CC(=O)O)c2)c1 [I-349] | > 5 | > 5
17 | O=C(O)Cn1cc(NC(=O)c2cccc(-c3cccnc3)c2Cl)ccc1=O [I-42] | 0.5 to 5 | > 5
18 | Cn1ccc(N2CC(C(=O)O)CC2=O)n1 (stereo not drawn) [I-233] | > 5 | > 5
19 | Cc1cc(OCc2ccccc2)ccc1-c1ccc(=O)n(CC(=O)O)c1 [I-366] | > 5 | > 5
20 | O=C(O)Cn1cc(NC(=O)[C@H]2CCCN(c3cccnc3)CC2)ccc1=O [I-28] | 0.5 to 5 | > 5
21 | O=C(O)Cn1cc(NC(=O)[C@@H]2CCCN(c3cccnc3)C2)c(C(F)(F)F)cc1=O [I-63] | 0.5 to 5 | > 5
22 | CC(C)Cc1cccc(-c2ccc(=O)n(CC(=O)O)c2)c1 [I-344] | > 5 | > 5
23 | Cn1cc(NC(=O)c2cccc(-c3cccnc3)c2)cc(C(=O)O)c1=O [I-31] | > 5 | > 5
24 | O=C(O)Cn1cc(NC(=O)[C@H]2CCCN(c3cccnc3)C2)c(C(F)(F)F)cc1=O [I-67] | > 5 | > 5

Row | Compound | IC50 [1] [µM] | IC50 [2] [µM]
25 | O=C(O)Cn1c(=O)oc2cc([N+](=O)[O-])ccc21 [I-214] | > 5 | > 5
26 | COc1cc(C(=O)Nc2ccc(=O)n(CC(=O)O)c2)cc(-c2ccccc2)c1 [I-262] | > 5 | > 5
27 | COc1cc(F)cc(-c2ccc(=O)n(CC(=O)O)c2)c1 [I-396] | > 5 | > 5
28 | Cc1c(NC(=O)c2cccc(-c3cccnc3)c2)ccc(=O)n1CC(=O)O [I-70] | > 5 | > 5
29 | O=C(O)Cn1cc(NC(=O)c2ccc3cc(Cl)ccc3c2)ccc1=O [I-177] | 0.5 to 5 | > 5
30 | O=C(O)Cn1cc(-c2cccc(F)c2)ccc1=O [I-420] | > 5 | > 5
31 | O=C(O)Cn1cc(NC(=O)c2cccc(-c3cccnc3)c2)c(Cl)cc1=O [I-97] | 0.05 to 0.5 | 0.5 to 5
32 | O=C(O)CCn1cc(NC(=O)c2cccc(-c3cccnc3)c2)ccc1=O [I-94] | > 5 | > 5
33 | CNc1cncc(N2CCC[C@H](C(=O)Nc3ccc(=O)n(CC(=O)O)c3)C2)c1 [I-40] | < 0.05 | 0.05 to 0.5
34 | O=C(O)Cn1cc(NC(=O)c2ccc(-c3cccnc3)cc2)ccc1=O [I-198] | 0.5 to 5 | > 5
35 | O=C(O)Cn1cc(-c2cccc3ccccc23)ccc1=O [I-409] | > 5 | > 5
36 | COc1cncc(-c2cccc(C(=O)Nc3ccc(=O)n(CC(=O)O)c3)c2)c1 [I-47] | < 0.05 | 0.5 to 5
37 | O=C(O)Cn1cc(NC(=O)c2cccc3[nH]ccc23)ccc1=O [I-139] | 0.5 to 5 | > 5
38 | Cc1cc(-c2ccc(=O)n(CC(=O)O)c2)c(C)cc1O [I-360] | > 5 | > 5
39 | CCN1C(=O)CCC(C(=O)O)C1c1cnn(C)c1 (stereo not drawn) [I-217] | > 5 | > 5
40 | O=C(O)Cc1cc(NC(=O)c2cccc(-c3cccnc3)c2)ccc1Cl [I-60] | 0.5 to 5 | > 5
41 | O=C(O)Cn1cc(NC(=O)c2cccc(-c3ccc(F)cc3)c2)ccc1=O [I-276] | 0.5 to 5 | > 5
42 | C[C@@]1(C(=O)Nc2ccc(=O)n(CC(=O)O)c2)CCCN(c2cccnc2)C1 [I-66] | 0.5 to 5 | > 5
43 | CN(CC1(C(=O)Nc2ccc(=O)n(CC(=O)O)c2)CC1)c1cccnc1 [I-43] | > 5 | > 5
44 | CCOC(=O)Cn1cc(NC(=O)c2cccc(-c3cncc(CCCCCCN)c3)c2)ccc1=O [I-159] | > 5 | > 5
45 | COc1cncc(N2CCC[C@H](C(=O)Nc3ccc(=O)n(CC(=O)O)c3)C2)c1 [I-45] | < 0.05 | 0.05 to 0.5
46 | Cn1cc(-c2cccc(C(=O)Nc3ccc(=O)n(CC(=O)O)c3)c2)ccc1=O [I-178] | > 5 | > 5
47 | O=C(O)Cn1cc(NC(=O)[C@@H]2CCCN(c3cccnc3)C2)c(Cl)cc1=O [I-82] | 0.5 to 5 | > 5
48 | Cc1cccc(Cl)c1C(=O)Nc1ccc(=O)n(CC(=O)O)c1 [I-319] | > 5 | > 5

Row | Compound | IC50 [1] [µM] | IC50 [2] [µM]
49 | COc1cccc(C2C(C(=O)O)CC(=O)N2C2CC2)c1 (stereo not drawn) [I-218] | > 5 | > 5
50 | COc1cncc(-c2cccc(C(=O)Nc3ccc4c(c3)CC(=O)O4)c2)c1 [I-13] | > 5 | > 5
51 | N#Cc1cccc(-c2ccc(=O)n(CC(=O)O)c2)c1 [I-324] | > 5 | > 5
52 | NC(=O)c1ccc(CN2C(=O)CCC2C(=O)O)cc1 (stereo not drawn) [I-222] | > 5 | > 5
53 | O=C(O)Cn1cc(NC(=O)c2ccc(-c3ccccc3)cc2)ccc1=O [I-212] | 0.5 to 5 | > 5
54 | O=C(O)Cc1cc(NC(=O)[C@@H]2CCCN(c3cccnc3)C2)ccc1Cl [I-30] | > 5 | > 5
55 | CC(C)(C)OC(=O)NCCCCCCc1cc(C(=O)Nc2ccc(=O)n(CC(=O)O)c2)cc(-c2cccnc2)c1 [I-165] | < 0.05 | 0.05 to 0.5
56 | O=C(O)Cn1cc(N2Cc3ccccc3C2=O)ccc1=O [I-307] | > 5 | > 5
57 | COc1cccc(-c2cccc(C(=O)Nc3ccc(=O)n(CC(=O)O)c3)c2)c1 [I-292] | > 5 | > 5
58 | O=C(O)Cn1cc(NC(=O)COc2cc(Cl)cc(Cl)c2)ccc1=O [I-257] | > 5 | > 5
59 | Nc1ccc(-c2ccc(=O)n(CC(=O)O)c2)cn1 [I-367] | > 5 | > 5
60 | CN(C(=O)Cc1ccc(=O)n(CC(=O)O)c1)c1ccccc1 [I-272] | > 5 | > 5
61 | O=C(O)Cn1cc(N2CCC3(CCN(c4cccnc4)CC3)C2=O)ccc1=O [I-38] | > 5 | > 5
62 | O=C(O)Cc1ccccc1O [I-425] | > 5 | > 5
63 | CCc1ccc(C(=O)CCC(=O)Nc2ccc(=O)n(CC(=O)O)c2)cc1 [I-253] | > 5 | > 5
64 | O=C(O)Cn1cc(NC(=O)C2(S(=O)(=O)c3ccc(Cl)cc3)CCCC2)ccc1=O [I-236] | > 5 | > 5
65 | CN(C)C(=O)c1ccc(-c2ccc(=O)n(CC(=O)O)c2)cc1 [I-393] | > 5 | > 5
66 | O=C(O)Cc1cnn2ccccc12 [I-223] | > 5 | > 5
67 | O=C(O)CCN1C(=O)CCc2ccccc21 [I-229] | > 5 | > 5
68 | CN(C)C(=O)Cc1ccc(=O)n(CC(=O)O)c1 [I-284] | > 5 | > 5
69 | Cc1ccc(C)c(-c2cccn(CC(=O)O)c2=O)c1 [I-390] | > 5 | > 5
70 | CC(C)(C)OC(=O)NCCCCCCc1cncc(-c2cccc(C(=O)Nc3ccc(=O)n(CC(=O)O)c3)c2)c1 [I-169] | < 0.05 | 0.05 to 0.5
71 | Cc1ccc2cc(C(=O)Nc3ccc(=O)n(CC(=O)O)c3)c(C)nc2c1 [I-191] | > 5 | > 5
72 | O=C(O)Cn1cc(-c2cc(F)c(O)c(F)c2)ccc1=O [I-389] | > 5 | > 5
